These results are taken from article PMC7146544, “Dual Plasmepsin-Targeting Antimalarial Agents Disrupt Multiple Stages of the Malaria Parasite Life Cycle” (Cell Host & Microbe, 2020).

Assay [1] relates to P. falciparum schizonts (3D7). Briefly: P. falciparum schizont egress inhibition assay. Conditions: compared with control. In kind it is cell-based, Plasmodium falciparum. How it is done: Parasites purified by magnet separation (MACS; Miltenyi Biotec) were eluted into complete RPMI containing 1 nM Compound 1 (C1) to prevent further egress and synchronize egress to within a 5 min window ([Pino et al., 2017]). When schizont preparations were fully mature, the C1 was washed out with warm complete RPMI-HEPES medium and schizonts transferred to a microscopy chamber for live video time lapse (1 frame per 0.5 s) imaging under DIC conditions using a Zeiss Live Cell Axio observer microscope with x63 oil immersion objective and Zen Blue software used for image capture. Videos (Videos S1 and S2) were processed using Fiji (https://www.nature.com/articles/nmeth.2019). Total parasite numbers and egress events were calculated over 5 min window and expressed as average ± SD of 3 replicate experiments. Because the purified late-stage parasites cannot be fully synchronized to egress within the observation time window, only a proportion of the schizonts will egress during the period of observation. Because all treatment groups originated from the same culture (ie those treated with compound and DMSO vehicle control) the developmental stage is consistent between treatments and the difference in egress quantitation can be attributable to the drug treatment.

Another assay relates to P. falciparum 3D7-PMX-HA. Briefly: EC50 in knock down parasite line 3D7-PMX-HA. Format: cell-based, Plasmodium falciparum. Conditions: presence vs absence of 2.5 mM GlcN.
The test system of assay [2] is P. falciparum 3D7-PMIX-HA. Briefly: EC50 in knock down parasite line 3D7-PMIX-HA. Format: cell-based, Plasmodium falciparum. Conditions: presence vs absence of 2.5 mM GlcN.
Another assay addresses T1, PMX (Plasmodium falciparum, UniProt Q8IAS0).
T1 construct: endogenous in cells
Format: binding, P. falciparum. Conditions: CETSA.

For assay [3], the target named is T2, recombinant PMX protein (rPMX) (Plasmodium falciparum, UniProt Q8IAS0). Format: biochemical, P. falciparum. Further details: full-length enzyme with prodomain and catalytic domain (pro-cat); 8xHis (C); made in house; host or cells: Spodoptera frugiperda (sf21) insect cells, baculovirus, secreted; compound added to the expression culture. Particulars: insect cell expression.
Target sequence in this assay (Q8IAS0 27-573): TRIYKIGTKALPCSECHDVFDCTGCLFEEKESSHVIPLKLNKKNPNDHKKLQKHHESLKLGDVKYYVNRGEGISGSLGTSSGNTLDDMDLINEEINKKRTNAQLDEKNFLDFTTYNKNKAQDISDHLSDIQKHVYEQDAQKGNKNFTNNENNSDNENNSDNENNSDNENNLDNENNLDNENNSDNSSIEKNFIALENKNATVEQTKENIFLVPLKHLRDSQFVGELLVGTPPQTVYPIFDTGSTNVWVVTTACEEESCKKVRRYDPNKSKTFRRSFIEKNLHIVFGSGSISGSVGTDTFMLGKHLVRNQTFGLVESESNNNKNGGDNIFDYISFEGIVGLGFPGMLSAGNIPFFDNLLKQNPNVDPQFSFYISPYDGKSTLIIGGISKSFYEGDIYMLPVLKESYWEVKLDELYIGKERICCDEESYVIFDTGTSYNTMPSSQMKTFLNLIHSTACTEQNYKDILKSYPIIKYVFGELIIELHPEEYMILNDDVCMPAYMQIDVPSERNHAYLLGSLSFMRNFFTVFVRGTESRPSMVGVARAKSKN

Assay [4] has as its system WM5 and 4 resistant P. falciparum. Briefly: microbe, parasite or virus in culture. Format: cell-based, Plasmodium falciparum. As to the method:
(§1) After 72 h incubation at 37°C each well was fixed at room temperature for 30 min with 50 μL of 0.25% glutaraldehyde (ProSciTech) diluted in PBS. Following centrifugation at 1200 rpm for 1 min, supernatants were discarded and parasites were stained with 50 μL of 5X SYBR Green (Invitrogen) diluted in PBS. 50,000 cells were counted by flow cytometry using a Cell Lab Quanta SC – MPL Flow Cytometer (Beckman Coulter) ([Bacon et al., 2007]). Growth was expressed as a percentage of the parasitemia obtained using a vehicle control. All samples were tested in triplicate. EC50 values were determined using GraphPad Prism.
The parent and resistant lines were then cloned by limiting dilution, the EC50 for each line was determined and genomic DNA was purified from clonal parasites (QIAGEN Blood and Tissue Kit).

The next assay concerns P. berghei. Briefly: Peters' 4-day suppressive test for P. berghei infection in mice. In kind it is in vivo, Plasmodium berghei. Conditions: 4 days. How it is done: For results shown in Figure 1 A male Swiss mice were infected intraperitoneally (IP) with 1 × 10^6 P. berghei ANKA-parasitised red blood cells withdrawn from a previously infected donor mouse. Test compounds were prepared in a vehicle consisting of 10% DMSO/90% Solutol (5% Solutol® HS-15 in 0.9% saline). […] Peripheral blood samples were taken 24 h after administration of the last dose, and parasitemia was measured by microscopic analysis of Giemsa-stained blood smears. Parasitemia values were averages for 6 mice per group and are expressed as percent parasitemia. For results shown in Figure 4A ‘donor’ female Swiss mice were infected intraperitoneally (IP) with blood stage P. berghei parasites constitutively expressing GFP (P. berghei ANKA GFPcon 259cl2 ([Franke-Fayard et al., 2004]). Three days later, groups of 4 ‘acceptor’ Swiss mice were infected intravenously (IV) with 1 × 10^7 parasitised erythrocytes from the ‘donor’ mice. Two h post infection, experimental mice (4 per cohort) were left untreated (control mice) or treated orally on 4 consecutive days with test drugs formulated in 20% DMSO/60% PG/20% water (v/v/v) or chloroquine dissolved in water. […] Peripheral blood samples were taken 12 h after the last treatment, and parasitemia measured by flow cytometry (proportion of GFP-positive cells in 100,000 recorded events using FACSCalibur, BD) and microscopic analysis of Giemsa-stained blood smears. Parasitemia values were averages for 4 mice per group and are expressed as percent parasitemia.

Another assay relates to PMIX. Kind of assay: CETSA thermal stability assay, PMIX. In kind it is binding, P. falciparum. How it is done: Lysate CETSA experiments were conducted essentially as described ([Dziekan et al., 2019]). Samples for CETSA studies were prepared using highly synchronous schizont stage P. falciparum 3D7-PMIX_HA and 3D7-PMX_HA parasites. Late-stage parasites (40–44 h post-invasion) were purified by Percoll density gradient and incubated with 1 μM compound 1 (C1) inhibitor (synthesized in-house) ([Hale et al., 2017]). After 2–4 h incubation, mature schizonts were washed once with PBS and pelleted infected red blood cells were lysed in 20 volumes of 0.15% (w/v) saponin in PBS and incubated on ice for 20 min. Parasites were washed 3 times in ice-cold PBS and the final pellet was resuspended in 10 volumes of lysis buffer (0.4% NP-40 (Roche) / PBS) and lysed by three freezing (dry ice/ethanol bath) - thawing cycles. The lysates were cleared by centrifugation at 16,000 g for 30 min and the supernatant containing soluble parasite proteins kept at −80°C until use. […] After blocking the membrane in 5% non-fat milk in TBST (M-TBST), PMIX_HA and PMX_HA were detected with anti-HA mAb 12CA5 (produced in-house) followed by HRP-conjugated a-mouse IgG Abs (Merck). Blots were developed with ECL Western Blotting Substrate (Thermo Fisher Scientific), and the images were generated and analyzed using ChemiDoc Gel Imaging System and Image Lab Software (Bio-Rad).

The target in assay [5] is T3, P. falciparum aspartic protease, PMV (Plasmodium falciparum, UniProt Q8I6Z5).
T3 construct: made in house
Kind of assay: Peptide cleavage (FRET) assay, PMV. Format: biochemical. Conditions: calculated from IC50 with Cheng-Prusoff equation.

Assay [6] relates to P. falciparum strains resistant to chloroquine, mefloquine, artemisinin, and atovaquone. Briefly: EC50 for P. falciparum strains resistant to known antimalarials. Format: cell-based, Plasmodium falciparum. Conditions: Figure S2. As to the method: as §1
For assay [7], the target named is T2, recombinant PMX protein (rPMX). Briefly: biochemical.
Target sequence in this assay (Q8IAS0 222-573): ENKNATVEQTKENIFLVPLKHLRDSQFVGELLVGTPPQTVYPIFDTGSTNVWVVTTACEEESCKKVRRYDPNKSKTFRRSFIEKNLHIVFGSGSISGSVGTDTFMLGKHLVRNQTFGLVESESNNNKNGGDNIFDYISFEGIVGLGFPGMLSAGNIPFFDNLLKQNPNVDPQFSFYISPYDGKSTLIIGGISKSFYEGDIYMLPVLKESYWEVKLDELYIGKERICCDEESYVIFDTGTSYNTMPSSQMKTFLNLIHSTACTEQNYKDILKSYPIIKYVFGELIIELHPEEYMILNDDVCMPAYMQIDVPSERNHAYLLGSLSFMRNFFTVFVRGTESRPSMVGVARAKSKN
Description: All wells were backfilled to 200 nL DMSO such that it remains constant across the assay plates (1% final). IC50 values were calculated by Dotmatics 5.3 and Spotfire 7.11.1 software using a nonlinear regression four-parameter fit analysis. The equation used is sigmoidal dose response (variable slope), Y = bottom + (top − bottom)/(1+10((logEC50 − X) × Hill Slope)). Compound Ki values were calculated from the IC50s using the Cheng-Prusoff equation, Ki = IC50/(1 + [S]/Km).
All compound potency assays were conducted in 20 μl total volume. For each assay, 10 μl of recombinant enzymes in respective assay buffers (Table) were dispensed into compound containing assay plates using a Multidrop Combi dispenser and allowed to incubate for 15 min. The reactions were started with a further 10 μl addition of FRET peptide substrates and reactions incubated at 37 °C for various times (Table).Samples were excited at 340 nm and fluorescence emission measured at 492 nm using an Envision fluorescence plate reader (Perkin-Elmer).
Where [8] appears, read: Plasmodium falciparum, 3D7, read-out: EC50, 3D7-WM4.1, WM4-resistant line 3D7-WM4.1.
[9] abbreviates: Plasmodium falciparum, 3D7, read-out: EC50, 3D7-WM5.1, WM5-resistant line 3D7-WM5.1.

Where “and” joins values, the source holds several entries; their conditions need not be identical. Equal values may be shown once. Read-outs that look alike come from different tables or passages of the source.

T3 sequence (Q8I6Z5 whole entry): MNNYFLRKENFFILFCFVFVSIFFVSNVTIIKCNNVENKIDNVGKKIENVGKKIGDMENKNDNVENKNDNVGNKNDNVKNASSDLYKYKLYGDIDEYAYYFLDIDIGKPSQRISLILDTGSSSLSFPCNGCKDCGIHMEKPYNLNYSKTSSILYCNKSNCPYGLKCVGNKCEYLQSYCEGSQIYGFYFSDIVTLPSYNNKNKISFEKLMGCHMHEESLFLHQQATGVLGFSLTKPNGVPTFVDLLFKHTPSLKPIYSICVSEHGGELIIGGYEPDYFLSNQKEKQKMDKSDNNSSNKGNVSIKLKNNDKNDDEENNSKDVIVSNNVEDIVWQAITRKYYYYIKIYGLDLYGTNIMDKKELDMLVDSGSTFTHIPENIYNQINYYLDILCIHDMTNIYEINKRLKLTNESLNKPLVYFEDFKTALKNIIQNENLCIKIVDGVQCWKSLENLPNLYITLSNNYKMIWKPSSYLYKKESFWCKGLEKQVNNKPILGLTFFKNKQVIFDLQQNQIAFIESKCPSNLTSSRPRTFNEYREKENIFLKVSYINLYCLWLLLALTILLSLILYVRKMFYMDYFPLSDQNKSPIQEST
T1 sequence (Q8IAS0 222-573): as the sequence (Q8IAS0 222-573) above

Consider `CC(NC(=O)c1cccc(C(c2ccccc2)N2C(=N)NC(C)(C(C)C)CC2=O)c1)c1ccccc1` (racemic) [WM4], for which the “egress of merozoites from the erythrocyte” value in assay [1] is on record as “potently inhibited egress of merozoites”. The “change of EC50 when PMX expression was decreased” value with P. falciparum 3D7-PMX-HA is listed as “significantly decreased”. Also, the “change of EC50 when PMIX expression was decreased” value in assay [2] is “no significant change”. Further, the “effect on thermal stability of PMX” value on PMX was “stabilized PMX”. The “cleavage of rPMX into catalytic and pro-domain” value in assay [3] is on record as “cleavage was inhibited”. Also, the 50% effective concentration (EC50) was 113 ± 2.3 nM in [4] (setting [8]); 140 ± 52.7 nM in assay [4] (Plasmodium falciparum, 3D7, read-out: EC50, 3D7-WM4.2, WM4-resistant line 3D7-WM4.2, Figure S1); 93.2 ± 2.04 nM in [4] (setting [9]); 142 ± 5.5 nM in [4] (Plasmodium falciparum, 3D7, read-out: EC50, 3D7-WM5.2, WM5-resistant line 3D7-WM5.2, Figure S1); 135 ± 3.8 nM in assay [4] (Plasmodium falciparum, 3D7, read-out: EC50, 3D7-WM5.3, WM5-resistant line 3D7-WM5.3, Figure S1); 93 nM and 65.9 nM in assay [4] (read-out: EC50, 3D7-WM4.1, WM4-resistant line 3D7-WM4.1). Moreover, in [4] (read-out: EC50, 3D7-WM5.1, WM5-resistant line 3D7-WM5.1), the concentration giving a half-maximal response (EC50) came out at 115 ± 18.8 nM. Moreover, in the assay with P. berghei (intraperitoneal, 20 mpk q.d., Swiss mice), the “in vivo activity against P. berghei infection” value is reported as “partial efficacy”. Moreover, in the assay with PMIX, the “effect on thermal stability of PMIX” value is “no effect on the thermal stability of PMIX”. In addition, the figures for the inhibition constant Ki in assay [5] and in assay [7] were 19800 ± 500 nM and 0.5 ± 0.2 nM, respectively. The “cross-resistance in drug resistant P. falciparum strains” value in assay [6] is on record as “no cross-resistance”. In assay [7], the IC50 is 0.81 nM.

In the case of `CCC1(CC)CC(=O)N([C@@H]2CCOc3ccc(C(=O)N[C@H]4CC(C)(C)Oc5ccccc54)cc32)C(=N)N1` [WM382], the “egress of merozoites from the erythrocyte” value in assay [1] is recorded as “potently inhibited egress of merozoites”. The “change of EC50 when PMX expression was decreased” value in the assay on P. falciparum 3D7-PMX-HA was “significantly decreased”. For the same compound, in assay [2], the “change of EC50 when PMIX expression was decreased” value was “significantly more sensitive”. In addition, the “effect on thermal stability of PMX” value at PMX is “significantly more thermostable”. Besides, the “cleavage of rPMX into catalytic and pro-domain” value in [3] is recorded as “cleavage was inhibited”. The half-maximal effective concentration (EC50) stood at 1.88 ± 0.03 nM in [4] (setting [8]) and 2.04 ± 0.05 nM in [4] (setting [9]). Also, in the assay on P. berghei (oral, 20 mg/kg (mpk) b.i.d.), the “in vivo efficacy against P. berghei” value was “significantly greater in vivo efficacy than WM4 and WM5”. Besides, the “effect on thermal stability of PMIX” value in the assay with PMIX was “significantly more thermostable”. For the same compound, the inhibition constant Ki in [5] was 13400 ± 620 nM; in assay [7], 0.035 ± 0.008 nM. Also, the “cross-resistance in drug resistant P. falciparum strains” value in assay [6] was “no cross-resistance”. Moreover, the IC50 in assay [7] came to 0.06 nM.
